# Data reported in US20040242487A1, “Regulation of eating behavior” (Joslin Diabetes Center, Inc., a Massachusetts corporation, priority 1995, published 2004).
# “Also recorded” adds a separate entry of the source.
# Key:
# MC3-R = target: T1, MC3-R (Mus musculus, UniProt P33033); assay: HEK-293 assay: ACTH binding to MC3-R after exposure to MCH; assay type: cell-based; conditions: HEK-293 cells stably transfected with MC3-R; exposure to 10^-7 M MCH for 20 minutes or overnight
# T1 construct: expressed in transfected cells; host or cells: HEK-293 (human kidney), stably transfected
# Protocol: As discussed herein, heterologous human kidney, HEK-293 cells stably transfected with a plasmid carrying MC3-R can be used to assay MCH activity. It is not clear whether the MCH interaction with the MC3-R receptor is direct or indirect, but application of MCH results in an increase in binding of ACTH to the MC3-R receptor. […] Exposure of cells to 10^-7 M MCH for 20 minutes or overnight results in a 15-100% increase in ACTH binding.
# rat = assay: In vivo rodent brain assay: intraventricular injection, eating behavior; conditions: intraventricular (third ventricle) injection of 5 μg MCH in 5 μl phosphate buffered saline, versus saline controls
# Text: As discussed herein, rodents, e.g., rats, can be used to assay MCH activity in vivo. A Teflon catheter can be inserted into the third ventricle of a rat and cemented into place. MCH or its analogs, e.g., agonists or antagonists, can be introduced by way of the catheter at various concentrations, and their effect on eating behavior determined.
# To further evaluate the importance of MCH as an appetite regulator, a Teflon catheter was inserted into the third ventricle of a rat and cemented into place, followed by intraventricular injection of 5 μg of MCH in 5 μl of phosphate buffered saline. Control animals received only phosphate buffered saline.
# T1 sequence (P33033 whole entry): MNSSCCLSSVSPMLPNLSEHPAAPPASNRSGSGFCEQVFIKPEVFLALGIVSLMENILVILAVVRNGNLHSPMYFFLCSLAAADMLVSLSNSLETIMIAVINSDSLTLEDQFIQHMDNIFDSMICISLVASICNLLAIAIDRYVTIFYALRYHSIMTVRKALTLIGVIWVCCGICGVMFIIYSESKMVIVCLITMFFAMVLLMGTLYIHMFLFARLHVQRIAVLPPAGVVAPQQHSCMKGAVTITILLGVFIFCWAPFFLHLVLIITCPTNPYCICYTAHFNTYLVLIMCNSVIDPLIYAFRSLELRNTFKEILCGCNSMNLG
substance,measurement,setting,value
melanocyte concentrating hormone [MCH],increase in ACTH binding,MC3-R,15-100%
same,Kcal consumed within one hour,rat,more than doubling; also recorded: doubling
